From US9415049B2, “Heteroaryl compounds and uses thereof” (Celgene Avilomics Research, Inc., priority 2013, dated 2016)

Target: T1, BTK autophosphorylation (Phospho Y223 Btk) in Ramos cells (Homo sapiens, UniProt Q06187)
T1 construct: endogenous in cells; host or cells: Ramos cells
Experiment: Btk Ramos cell signaling immunoblot analysis, phospho-Btk
Format: cell-based
Conditions: 1 hour compound incubation, anti-human IgM stimulation, phospho-Btk normalized to total Btk, read-out: pBtk EC50
Protocol: The following example describes testing certain compounds according to the invention for inhibition of BTK activity. Ramos cells were incubated in serum-free RPMI medium for 1-1.5 hours. Cells were then centrifuged for 5 minutes at 1100 RPM and resuspended in serum-free RPMI in 15 mL roundbottom Corning tubes (˜2×10^6 cells/mL in 4 mL/tube). The compound was diluted in DMSO and was added to the cells to achieve a final concentration of 0.0003, 0.001, 0.003, 0.01, 0.03, 0.1, 0.3, and 1.0 μM. Cells were then incubated for 1 hour at 37° C. Following incubation, cells were spun at 1100 RPM for 5 minutes and then resuspended in 100 μL of serum-free RPMI. […] Supernatant was transferred to a fresh tube and analyzed for protein content. […]
10 μg of protein was denatured by adding 1:10 (v:v) of NuPage Reducing Agent plus 1:4 (v:v) of LDS Loading Buffer. […] The membrane was then scanned on a LiCor Odyssey Scanner using infrared fluorescence detection.
Data analysis was accomplished using the analysis package found in Odyssey Infrared Imaging System software in which intensities of total Btk and phospho-Btk were measured. Phospho-Btk was normalized to total Btk protein in each lane as a loading control and results are expressed as % activity compared to the DMSO control (100%) Inhibition of phospho-PLCγ2 was quantitated in a similar manner. […]

T1 sequence (Q06187 whole entry): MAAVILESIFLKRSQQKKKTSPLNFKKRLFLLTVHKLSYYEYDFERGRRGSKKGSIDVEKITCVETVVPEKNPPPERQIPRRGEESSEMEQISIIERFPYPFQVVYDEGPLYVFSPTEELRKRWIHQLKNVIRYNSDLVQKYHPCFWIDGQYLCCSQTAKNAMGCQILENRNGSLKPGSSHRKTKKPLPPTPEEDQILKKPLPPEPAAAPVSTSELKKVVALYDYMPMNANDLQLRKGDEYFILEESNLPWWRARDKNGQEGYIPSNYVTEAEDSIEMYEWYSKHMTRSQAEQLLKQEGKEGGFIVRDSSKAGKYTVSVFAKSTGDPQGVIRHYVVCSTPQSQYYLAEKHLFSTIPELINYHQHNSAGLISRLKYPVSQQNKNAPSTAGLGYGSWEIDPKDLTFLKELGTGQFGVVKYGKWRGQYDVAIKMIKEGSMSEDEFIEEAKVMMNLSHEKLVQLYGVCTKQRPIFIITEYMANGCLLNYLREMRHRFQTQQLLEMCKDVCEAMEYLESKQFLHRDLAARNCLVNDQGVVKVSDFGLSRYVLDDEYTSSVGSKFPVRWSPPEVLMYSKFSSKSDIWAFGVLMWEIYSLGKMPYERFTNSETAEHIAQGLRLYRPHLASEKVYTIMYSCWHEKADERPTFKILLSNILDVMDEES

| EC50 | Compound |
| --- | --- |
| 0.01 to 0.05 µM | C=CC(=O)Nc1cccc(Nc2nc(Nc3ccc(O)cc3)ncc2F)c1 [Compound I-3, N-(3-((5-fluoro-2-((4-hydroxyphenyl)amino)pyrimidin-4-yl)amino)phenyl)acrylamide] |
| < 0.01 µM | C=CC(=O)Nc1cccc(Nc2nc(Nc3ccc(OCCO)cc3)ncc2F)c1 [Compound I-1, N-(3-((5-fluoro-2-((4-(2-hydroxyethoxy)phenyl)amino)pyrimidin-4-yl)amino)phenyl)acrylamide] |
